Measurements as given in ChEMBL document CHEMBL1134996, “Non-peptide alpha(v)beta(3) antagonists. Part 5: identification of potent RGD mimetics incorporating 2-aryl beta-amino acids as aspartic acid replacements” (Bioorg Med Chem Lett, 2002).
pIC50: −log10 of the molar value.

Columns and labels:
Integrin alpha-V/beta-3 = Integrin alpha-V/beta-3 (Homo sapiens, UniProt P05106+P06756); experiment: Inhibition of binding to human integrin receptor alpha V beta3; assay type: protein-complex assay
[1] = Bioavailability in dog; assay type: ADME, organism-based, Canis lupus familiaris; conditions: in vivo
[2] = Clearance after oral and iv dosing in dogs; assay type: ADME, organism-based, Canis lupus familiaris; conditions: dog, in vivo, read-out: CI

Integrin alpha-V/beta-3, sequence (P05106 27-788 limits assumed): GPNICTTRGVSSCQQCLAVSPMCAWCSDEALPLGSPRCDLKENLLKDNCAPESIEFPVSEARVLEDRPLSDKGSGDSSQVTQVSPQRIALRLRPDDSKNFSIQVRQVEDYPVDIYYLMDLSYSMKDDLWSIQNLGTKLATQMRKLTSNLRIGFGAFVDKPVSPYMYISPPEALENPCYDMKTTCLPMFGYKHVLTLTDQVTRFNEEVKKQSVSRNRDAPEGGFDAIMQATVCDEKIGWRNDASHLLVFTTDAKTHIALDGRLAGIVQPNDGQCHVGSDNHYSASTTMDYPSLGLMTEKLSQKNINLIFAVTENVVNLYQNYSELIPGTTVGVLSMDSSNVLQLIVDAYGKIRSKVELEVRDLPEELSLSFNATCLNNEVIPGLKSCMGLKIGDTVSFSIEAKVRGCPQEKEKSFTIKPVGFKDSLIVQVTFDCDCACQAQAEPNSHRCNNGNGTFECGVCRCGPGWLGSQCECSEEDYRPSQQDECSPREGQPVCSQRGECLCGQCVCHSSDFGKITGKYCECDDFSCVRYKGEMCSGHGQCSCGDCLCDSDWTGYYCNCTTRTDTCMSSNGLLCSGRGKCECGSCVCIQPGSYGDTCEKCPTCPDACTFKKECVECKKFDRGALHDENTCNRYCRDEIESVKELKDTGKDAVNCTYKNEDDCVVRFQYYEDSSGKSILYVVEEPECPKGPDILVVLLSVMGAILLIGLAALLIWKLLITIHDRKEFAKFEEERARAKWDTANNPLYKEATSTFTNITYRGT
Integrin alpha-V/beta-3, sequence (P06756 31-889 limits assumed): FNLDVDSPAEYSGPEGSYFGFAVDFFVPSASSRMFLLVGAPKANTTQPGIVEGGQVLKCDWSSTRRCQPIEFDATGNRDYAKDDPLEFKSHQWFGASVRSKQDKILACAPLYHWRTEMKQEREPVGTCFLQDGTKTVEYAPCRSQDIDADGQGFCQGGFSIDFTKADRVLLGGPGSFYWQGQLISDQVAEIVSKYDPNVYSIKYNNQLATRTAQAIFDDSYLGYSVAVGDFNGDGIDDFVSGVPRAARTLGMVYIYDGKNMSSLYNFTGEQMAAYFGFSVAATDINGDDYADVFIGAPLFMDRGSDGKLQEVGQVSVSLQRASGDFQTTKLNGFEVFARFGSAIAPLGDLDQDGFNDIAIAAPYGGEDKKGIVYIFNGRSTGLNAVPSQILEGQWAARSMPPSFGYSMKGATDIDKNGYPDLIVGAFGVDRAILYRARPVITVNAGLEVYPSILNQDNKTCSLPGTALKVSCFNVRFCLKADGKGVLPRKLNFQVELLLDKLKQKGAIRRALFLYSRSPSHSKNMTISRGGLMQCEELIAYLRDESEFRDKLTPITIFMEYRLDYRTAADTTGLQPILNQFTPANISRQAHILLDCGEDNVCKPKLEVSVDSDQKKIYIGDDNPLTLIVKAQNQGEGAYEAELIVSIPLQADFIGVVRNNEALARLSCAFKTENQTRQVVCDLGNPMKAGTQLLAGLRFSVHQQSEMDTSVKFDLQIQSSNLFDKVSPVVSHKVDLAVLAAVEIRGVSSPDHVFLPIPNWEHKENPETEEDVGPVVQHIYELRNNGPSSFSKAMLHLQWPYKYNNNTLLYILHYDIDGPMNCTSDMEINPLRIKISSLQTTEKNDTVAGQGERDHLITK
Integrin alpha-V/beta-3, sequence (P06756 891-1048 limits assumed): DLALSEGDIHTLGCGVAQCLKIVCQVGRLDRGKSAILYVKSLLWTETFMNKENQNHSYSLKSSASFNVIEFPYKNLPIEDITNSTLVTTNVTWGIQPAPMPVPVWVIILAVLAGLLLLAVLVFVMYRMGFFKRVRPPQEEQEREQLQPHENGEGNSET

SMILES	pIC50 (Integrin alpha-V/beta-3)	bioavailability [1] [%]	clearance [2] [mL/min/kg]
O=C(CCCCc1ccc2c(n1)NCCC2)NCC(C(=O)O)c1cccc(F)c1 (stereo not given)	7.96		
O=C(O)C[C@H](NC(=O)CCCCc1ccc2c(n1)NCCC2)c1ccccc1	7.08		
O=C(CCCCc1ccc2c(n1)NCCC2)NCC(C(=O)O)c1ccccc1 (stereo not given)	7.24		
O=C(O)C[C@H](NC(=O)CCCCc1ccc2c(n1)NCCC2)c1cnc2ccccc2c1	8.97		
O=C(O)C[C@H](NC(=O)CCCCc1ccc2c(n1)NCCC2)c1ccc2c(c1)OCC2			2

Continued by rising pIC50 (Integrin alpha-V/beta-3), values first:

pIC50 (Integrin alpha-V/beta-3)	bioavailability [1] [%]	clearance [2] [mL/min/kg]	SMILES
9.00	47	6.6	O=C(CCCCc1ccc2c(n1)NCCC2)NCC(C(=O)O)c1ccc2c(c1)OCC2 (stereo not given)
9.09			O=C(CCCCc1ccc2c(n1)NCCC2)NCC(C(=O)O)c1cnc2ccccc2c1 (stereo not given)
9.13			CN(CC(C(=O)O)c1ccc2c(c1)OCC2)C(=O)CCCCc1ccc2c(n1)NCCC2 (stereo not given)
9.14	1.1	18.9	O=C(CCC1CCc2cc3c(nc2C1)NCCC3)NCC(C(=O)O)c1ccc2c(c1)OCC2 (stereo not given)
9.31			CN(CC(C(=O)O)c1ccc2c(c1)OCC2)C(=O)CCCCc1nc2c(cc1C1CC1)CCCN2 (stereo not given)
9.46	18	10.3	CN(CC(C(=O)O)c1ccc2c(c1)OCC2)C(=O)CCC1CCc2cc3c(nc2C1)NCCC3 (stereo not given)
9.54	40	13.7	O=C(CCCCc1nc2c(cc1C1CC1)CCCN2)NCC(C(=O)O)c1ccc2c(c1)OCC2 (stereo not given)
